Legend:
[1] = Stability of [^225Ac(macropa)]^+ in human serum (radio-TLC); format: in vitro ADME
Description: […]. [^225Ac(macropa)]^+ and [^225Ac(DOTA)]^− were prepared using 10^−5 M and 10^−3 M stock solutions (10 μL) of macropa and DOTA, respectively, to give final ligand concentrations of 5.9×10^−7 M (macropa) and 5.9×10^−5 M (DOTA). After confirming a radiochemical yield of >90% by TLC using 0.4 M sodium citrate (pH 4) containing 10% MeOH as the mobile phase, 160 μL of human serum (an equal volume based on labeling reaction volume) were added to each radiolabeled solution. A control solution was also prepared in which water was substituted for ligand. The solutions were monitored over the course of 8 days by iTLC. The plates were developed with EDTA (50 mM, pH 5) as the eluent. Under these conditions, [^225Ac(macropa)]^+ and [^225Ac(DOTA)]^− complexes remained at the baseline (RF=0) and any ^225Ac (^225Ac-EDTA) that had been transchelated by serum migrated with the solvent front (RF=1). Percent of complex remaining intact was calculated.
The long half-life of ^225Ac necessitates its stable complex retention in vivo to avoid off-target damage to normal tissues arising from the release of free ^225Ac^3+. Furthermore, the stability of ^225Ac complexes against transmetalation and transchelation needs to be high. To determine the kinetic inertness, [^225Ac(macropa)]^+ was challenged with La^3+ because of the established high affinity of macropa for this metal ion. […]

[2] = Kinetic inertness of ^225Ac complex: transmetalation challenge with La^3+; format: physicochemical; conditions: 50-fold excess of La^3+, macropa 0.59 μM, RT, over 7 days
Description: General. Stock solutions of La(NO3)3 (0.001 M or 0.1 M) were prepared in H2O. To the radiolabeled samples containing macropa (10 μL of 10^−5 M stock; 1.0×10^−10 moles) or DOTA (10 μL of 10^−3 M stock; 1.0×10^−8 moles) and ^225Ac (10 μL, 26 kBq) in NH4OAc buffer (pH 6, 0.15 M, 150 μL), a 50-fold mole excess of La^3+ was added (5 μL of 0.001 M or 0.1 M stock were added to solutions containing macropa and DOTA, respectively). The solutions were kept at room temperature and analyzed by iTLC at several time points over the course of 8 days. The iTLC plates were developed using citric acid (0.05 M, pH 5) as the eluent. Under these conditions, [^225Ac(macropa)]^+ and [^225Ac(DOTA)]^− remained at the baseline (RF=0) and any unchelated ^225Ac (^225Ac-citrate) migrated with the solvent front (RF=1). Percent of complex remaining intact was calculated by integrating area under the peaks on the radiochromatogram and dividing the counts associated with the ^225Ac-complex (RF=0) by the total counts integrated along the length of the iTLC plate.
The long half-life of ^225Ac necessitates its stable complex retention in vivo to avoid off-target damage to normal tissues arising from the release of free ^225Ac^3+. Furthermore, the stability of ^225Ac complexes against transmetalation and transchelation needs to be high. […]

O=C([O-])c1cccc(CN2CCOCCOCCN(Cc3cccc(C(=O)[O-])n3)CCOCCOCC2)n1.[225Ac+3] [[^225Ac(macropa)]^+]
time ^225Ac^3+ remains complexed in human serum [1]: at least 8 days | ^225Ac complex remaining intact [2]: 98%
